As a reminder, the AC50 is the midpoint of the concentration-response curve, whichever way the signal moves. Broadly, the EC50 is the concentration giving half of the maximal effect.

This is an account of results in ChEMBL document CHEMBL1201862, “PubChem BioAssay data set” (2004).

Activity calls are given as the source filed them. Where only a bound is given, the exact number is not on record here.

For data set [1], the target named is Cytochrome P450 2C9 (Homo sapiens, UniProt P11712).
The target of data set [2] is Cytochrome P450 3A4 (Homo sapiens, UniProt P08684).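 Note: CYP3A4 tested as one member of a cytochrome P450 panel screen.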
The nature of data set [3]: HIV-1 AD8 envelope cell-cell fusion blockers – cherry-pick, dose response (AID 652062).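 Note: luciferase signal from cell-cell fusion driven by HIV-1 clade B AD8 Env; potency is for inhibitors of fusion seen as a drop in luminescence.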 It counts as functional, cell-based.
Data set [4] is described as follows: off-target signal loss in HeLa-CEM21 co-culture – HeLa F-luc CTL cells, cherry-picked, counter-screen for HIV-1 Env fusion inhibitor project, dose response (AID 652040).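 Note: potency for signal decrease marking cytotoxic or nonspecific inhibition.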 It counts as functional, cell-based. For orientation: Counterscreens check selectivity or assay interference.
Data set [5] in a line: blockers of HIV-1 ZM109 envelope-driven cell-cell fusion – HeLa effector, CEM target cells, luciferase, cherry-pick, dose response (AID 652058).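 Note: luciferase signal from HIV-1 Env mediated cell-cell fusion of effector and target cells.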 It counts as functional, cell-based.
Data set [6] in a line: blockers of HIV-1 envelope-mediated cell-cell fusion – cherry-pick, dose response (AID 652057). It counts as functional, cell-based.
Data set [7] can be described thus: viability loss in CEM21 cells – cell-based, CellTiter-Glo luminescence, cherry-picked, cytotoxicity control for viral fusion inhibitor project, dose response (AID 652042).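 Note: potency for signal decrease meaning cytotoxicity.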 It counts as functional. (In general: Cellular ATP, detected with luciferase, serves as a proxy for viable cell number.)
Data set [8] concerns the target Cytochrome P450 2D6 (Homo sapiens, UniProt P10635).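 Note: CYP2D6 member of a cytochrome P450 panel assay.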
Data set [9] has as its target T1, Cytochrome P450 1A2 (Homo sapiens, UniProt P05177).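 Note: PubChem cytochrome P450 panel assay, CYP1A2 panel member.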
T1 sequence (P05177 whole entry): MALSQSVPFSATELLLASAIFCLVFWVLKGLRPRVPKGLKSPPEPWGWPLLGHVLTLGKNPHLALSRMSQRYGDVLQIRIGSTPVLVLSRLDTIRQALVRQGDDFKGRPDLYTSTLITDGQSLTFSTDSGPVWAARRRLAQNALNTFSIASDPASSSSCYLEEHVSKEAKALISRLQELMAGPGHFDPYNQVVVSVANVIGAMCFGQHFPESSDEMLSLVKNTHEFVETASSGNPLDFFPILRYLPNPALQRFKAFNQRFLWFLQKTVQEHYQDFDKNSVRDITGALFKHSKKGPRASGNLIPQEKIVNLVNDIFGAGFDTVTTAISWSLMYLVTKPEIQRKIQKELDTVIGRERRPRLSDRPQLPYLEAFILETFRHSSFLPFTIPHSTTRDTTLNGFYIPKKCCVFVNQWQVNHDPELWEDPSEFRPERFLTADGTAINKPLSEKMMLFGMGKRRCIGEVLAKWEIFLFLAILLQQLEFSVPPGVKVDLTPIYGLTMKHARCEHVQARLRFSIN

For data set [10], the target named is T2, Replicative DNA helicase DnaB (Mycobacterium tuberculosis, UniProt P9WMR3).
T2 sequence (P9WMR3 whole entry): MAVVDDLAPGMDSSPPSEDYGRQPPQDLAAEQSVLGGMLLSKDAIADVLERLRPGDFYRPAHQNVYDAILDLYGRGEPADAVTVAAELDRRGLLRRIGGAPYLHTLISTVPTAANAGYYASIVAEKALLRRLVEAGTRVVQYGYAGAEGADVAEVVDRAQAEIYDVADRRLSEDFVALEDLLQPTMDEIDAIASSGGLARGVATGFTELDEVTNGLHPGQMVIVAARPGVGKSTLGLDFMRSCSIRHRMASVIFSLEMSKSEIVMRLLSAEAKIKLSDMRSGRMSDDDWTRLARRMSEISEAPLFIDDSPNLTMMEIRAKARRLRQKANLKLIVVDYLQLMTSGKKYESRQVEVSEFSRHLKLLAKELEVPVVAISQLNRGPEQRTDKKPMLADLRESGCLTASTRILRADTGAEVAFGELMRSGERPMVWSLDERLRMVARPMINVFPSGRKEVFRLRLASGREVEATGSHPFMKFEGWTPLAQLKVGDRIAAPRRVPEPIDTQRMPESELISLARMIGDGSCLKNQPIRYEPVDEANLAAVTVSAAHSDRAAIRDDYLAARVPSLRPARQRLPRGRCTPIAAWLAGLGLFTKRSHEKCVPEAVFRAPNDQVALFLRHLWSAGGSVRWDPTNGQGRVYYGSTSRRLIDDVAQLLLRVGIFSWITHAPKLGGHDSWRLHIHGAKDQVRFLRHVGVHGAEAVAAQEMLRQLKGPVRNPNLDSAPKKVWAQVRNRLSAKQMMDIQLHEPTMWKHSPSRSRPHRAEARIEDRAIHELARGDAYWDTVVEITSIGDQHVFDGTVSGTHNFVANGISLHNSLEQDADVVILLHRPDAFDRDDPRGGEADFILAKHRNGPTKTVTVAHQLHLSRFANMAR
The data set is described as follows: DnaB intein splicing inhibitors, dose response, biochemical, cell-free fluorescence (AID 449749). Type of data set: functional.

Data set [11] has as its target T3, Protein RecA (Mycobacterium tuberculosis, UniProt P9WHJ3).
T3 sequence (P9WHJ3 whole entry): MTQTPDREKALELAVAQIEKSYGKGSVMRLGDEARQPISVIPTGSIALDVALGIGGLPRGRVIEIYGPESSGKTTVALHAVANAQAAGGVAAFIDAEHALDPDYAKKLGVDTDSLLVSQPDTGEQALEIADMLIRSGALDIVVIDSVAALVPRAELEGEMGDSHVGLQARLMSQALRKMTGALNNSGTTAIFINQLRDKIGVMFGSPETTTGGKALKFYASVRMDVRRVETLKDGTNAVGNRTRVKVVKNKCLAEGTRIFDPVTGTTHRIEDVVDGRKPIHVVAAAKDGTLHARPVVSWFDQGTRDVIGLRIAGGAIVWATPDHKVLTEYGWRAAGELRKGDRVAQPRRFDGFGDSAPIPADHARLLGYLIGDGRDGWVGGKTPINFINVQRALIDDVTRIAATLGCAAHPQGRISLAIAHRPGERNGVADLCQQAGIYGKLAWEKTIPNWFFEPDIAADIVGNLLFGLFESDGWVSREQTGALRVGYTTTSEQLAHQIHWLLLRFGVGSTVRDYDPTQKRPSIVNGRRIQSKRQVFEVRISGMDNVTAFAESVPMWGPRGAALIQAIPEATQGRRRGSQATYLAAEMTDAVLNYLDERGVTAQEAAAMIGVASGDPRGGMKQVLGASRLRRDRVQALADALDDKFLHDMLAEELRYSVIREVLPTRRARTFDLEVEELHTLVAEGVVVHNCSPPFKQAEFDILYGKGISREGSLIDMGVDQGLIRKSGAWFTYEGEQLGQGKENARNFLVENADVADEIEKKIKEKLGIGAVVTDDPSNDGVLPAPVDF
The data set is described as follows: Fluorescence Cell-Free Homogeneous Dose Retest to Identify Inhibitors of RecA-Intein Splicing Activity. [Related pubchem assays (depositor defined):AID2097, AID2223, AID489010, AID492950]. Type of data set: functional.

Data set [12] has as its target T4, Heat shock factor protein 1 (Mus musculus, UniProt P38532).
T4 sequence (P38532 whole entry): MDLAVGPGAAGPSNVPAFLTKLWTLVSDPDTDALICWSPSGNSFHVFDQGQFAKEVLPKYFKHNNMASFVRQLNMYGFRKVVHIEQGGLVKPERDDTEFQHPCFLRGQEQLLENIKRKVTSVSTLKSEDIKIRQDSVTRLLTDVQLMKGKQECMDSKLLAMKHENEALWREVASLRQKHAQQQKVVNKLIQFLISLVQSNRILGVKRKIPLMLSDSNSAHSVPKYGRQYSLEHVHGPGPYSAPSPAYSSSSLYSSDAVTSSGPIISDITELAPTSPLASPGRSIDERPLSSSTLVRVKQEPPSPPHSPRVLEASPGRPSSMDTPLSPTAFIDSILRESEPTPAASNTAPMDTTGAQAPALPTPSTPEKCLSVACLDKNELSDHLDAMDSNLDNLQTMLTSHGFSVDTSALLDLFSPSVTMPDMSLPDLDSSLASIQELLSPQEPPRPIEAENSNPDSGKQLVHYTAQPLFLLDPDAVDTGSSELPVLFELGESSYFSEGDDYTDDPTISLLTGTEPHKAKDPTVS
The data set can be described thus: enhancement of HSF1-driven luciferase signal – cell-based, NIH3T3, luminescence, dose retest, confirmation (AID 435004).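 Note: stress induced by proteasome inhibitor MG132 added 30 min after compound; luciferase reporter driven by HSF1 response element in NIH3T3 cells; actives raise luminescence as potentiators of the MG132 stress response.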 Type of data set: functional.

Data set [13] concerns the target FAD-linked sulfhydryl oxidase ALR (Homo sapiens, UniProt P55789). The data set can be described thus: ALR-catalysed DTT oxidation blockers – biochemical, H2O2 detection, luminescence, cherry-pick, dose response (AID 493248).
Data set [14] deals with Cytochrome P450 2C19 (Homo sapiens, UniProt P33261). The data set is described as follows: Cytochrome panel assay with activity outcomes. Panel member name: p450-cyp2c19 Compounds with AC50 equal or less than 10 uM are considered active. It counts as functional.
The nature of data set [15]: microbe, parasite or virus in culture. Type of data set: functional. Conditions: Mycobacterium tuberculosis.
The test system of data set [16] is INS1. The data set is described as follows: INS-1E survival protection against cytokine death – cell-based, luminescence, retest, dose response (AID 449756).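 Note: cell death triggered by IL-1 beta plus TNF-alpha plus IFN-gamma mixture; protective hits raise ATP signal compared with cytokine alone wells.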 Conditions: Rattus norvegicus. It counts as functional.

Chain of Cytochrome P450 2C9 (P11712 whole entry): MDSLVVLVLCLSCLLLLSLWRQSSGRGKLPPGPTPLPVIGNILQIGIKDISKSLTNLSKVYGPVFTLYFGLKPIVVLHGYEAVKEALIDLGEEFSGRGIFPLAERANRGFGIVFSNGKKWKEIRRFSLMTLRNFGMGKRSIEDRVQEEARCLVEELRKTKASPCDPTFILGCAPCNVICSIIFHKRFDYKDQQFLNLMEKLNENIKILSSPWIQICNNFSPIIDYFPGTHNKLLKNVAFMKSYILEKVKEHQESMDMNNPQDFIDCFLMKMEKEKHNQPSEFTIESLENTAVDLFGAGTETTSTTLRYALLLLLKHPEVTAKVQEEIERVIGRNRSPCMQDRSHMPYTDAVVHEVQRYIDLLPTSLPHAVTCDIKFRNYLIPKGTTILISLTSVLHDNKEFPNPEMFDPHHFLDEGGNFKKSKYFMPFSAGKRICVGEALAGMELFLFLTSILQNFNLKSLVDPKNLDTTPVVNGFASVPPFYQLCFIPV
Chain of Cytochrome P450 2C19 (P33261 whole entry): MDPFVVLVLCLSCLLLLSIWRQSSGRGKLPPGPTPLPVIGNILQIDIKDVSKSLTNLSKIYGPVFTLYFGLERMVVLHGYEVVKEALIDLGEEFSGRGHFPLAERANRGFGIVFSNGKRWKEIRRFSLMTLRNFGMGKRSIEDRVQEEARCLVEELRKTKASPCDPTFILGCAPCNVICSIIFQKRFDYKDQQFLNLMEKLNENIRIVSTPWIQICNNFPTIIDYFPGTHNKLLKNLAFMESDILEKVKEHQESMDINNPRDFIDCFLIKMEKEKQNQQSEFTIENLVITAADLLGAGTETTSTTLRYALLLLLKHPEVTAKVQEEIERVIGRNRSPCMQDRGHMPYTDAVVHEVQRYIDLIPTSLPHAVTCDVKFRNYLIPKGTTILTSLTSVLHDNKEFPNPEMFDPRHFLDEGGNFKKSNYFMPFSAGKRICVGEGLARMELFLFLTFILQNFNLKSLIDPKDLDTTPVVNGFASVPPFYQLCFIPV
Chain of Cytochrome P450 3A4 (P08684 whole entry, the tested form may be a part): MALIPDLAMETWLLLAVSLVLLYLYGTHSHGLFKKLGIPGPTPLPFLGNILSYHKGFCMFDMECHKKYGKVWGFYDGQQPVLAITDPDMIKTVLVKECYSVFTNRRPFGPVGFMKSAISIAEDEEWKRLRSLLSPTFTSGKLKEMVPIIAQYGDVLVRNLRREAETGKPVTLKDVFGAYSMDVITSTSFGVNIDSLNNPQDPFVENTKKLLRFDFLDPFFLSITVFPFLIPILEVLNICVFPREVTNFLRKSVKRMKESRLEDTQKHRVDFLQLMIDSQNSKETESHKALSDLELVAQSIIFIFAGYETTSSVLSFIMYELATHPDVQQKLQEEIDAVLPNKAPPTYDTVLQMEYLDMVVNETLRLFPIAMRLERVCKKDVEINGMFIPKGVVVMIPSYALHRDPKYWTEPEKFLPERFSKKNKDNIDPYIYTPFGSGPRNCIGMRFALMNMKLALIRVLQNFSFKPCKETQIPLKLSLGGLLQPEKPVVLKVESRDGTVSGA
Chain of Cytochrome P450 2D6 (P10635 whole entry): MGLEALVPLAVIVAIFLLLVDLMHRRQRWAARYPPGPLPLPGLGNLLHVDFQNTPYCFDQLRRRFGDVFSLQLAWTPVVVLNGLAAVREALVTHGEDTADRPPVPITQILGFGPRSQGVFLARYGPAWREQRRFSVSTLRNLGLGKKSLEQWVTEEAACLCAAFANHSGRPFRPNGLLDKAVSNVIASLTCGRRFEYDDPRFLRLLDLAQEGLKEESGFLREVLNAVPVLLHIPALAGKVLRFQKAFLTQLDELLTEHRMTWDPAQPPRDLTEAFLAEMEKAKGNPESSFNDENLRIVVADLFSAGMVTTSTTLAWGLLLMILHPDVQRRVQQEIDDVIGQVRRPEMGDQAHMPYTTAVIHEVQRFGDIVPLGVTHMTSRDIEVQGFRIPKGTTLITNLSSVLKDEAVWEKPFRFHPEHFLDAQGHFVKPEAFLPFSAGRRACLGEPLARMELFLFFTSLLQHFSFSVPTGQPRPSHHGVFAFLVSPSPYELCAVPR
Chain of FAD-linked sulfhydryl oxidase ALR (P55789 whole entry): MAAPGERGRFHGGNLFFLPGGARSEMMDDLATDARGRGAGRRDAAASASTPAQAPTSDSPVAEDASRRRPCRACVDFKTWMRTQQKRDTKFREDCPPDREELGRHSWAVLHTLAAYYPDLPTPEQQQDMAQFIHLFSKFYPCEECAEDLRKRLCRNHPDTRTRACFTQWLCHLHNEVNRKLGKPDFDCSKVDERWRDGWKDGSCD

On to `Cc1ccc(NC(S)=NCCN2CCOCC2)cc1C`, for which the AC50 entry in data set [1] was “inconclusive”; in data set [2], 15.8 µM (inconclusive).

For the compound `COc1ccccc1NC(=O)c1nn(-c2cccc(C(F)(F)F)c2)ccc1=O`, the AC50 entry in [1] was “inconclusive”.

For `CCc1ccc(CN2CCN(C(=O)c3cccc(OC)c3OC)CC2)cc1`, the AC50 is 11.8 µM (active) in data set [3]; 26.2 µM (active) in [4]; 2.01 µM (active) in [5]; 1.66 µM (active) in data set [6]; 67.5 µM (active) in data set [7].

Consider `COc1ccccc1-c1cc(C(=O)Nc2cc(C)n(Cc3ccc(Cl)cc3)n2)no1`, for which the AC50 in data set [8] is 0.891 µM (inconclusive); in data set [1], “inconclusive”; in [9] it was 0.794 µM (inconclusive).

As to `CC(C)Cn1c(SCC(=O)c2c(N)n(C)c(=O)n(C)c2=O)nc2ccccc21`, the figures for the AC50 entry in data set [1] and in [9] were “inconclusive” and 25.1 µM (inconclusive), respectively.

`Cc1ccc(S(=O)(=O)c2c(N)n(CCC(C)C)c3nc4ccccc4nc23)cc1`: the AC50 in data set [3] is 35.4 µM (active); in data set [4], 18.6 µM (active); in data set [5], 24.9 µM (active); in data set [10], > 380 µM (inactive); in [6], 9.53 µM (active); in data set [7], 22.7 µM (active). The EC50 is 3.98 µM (active) in data set [11] and > 260 µM (inactive) in [12].

For `CSc1nc(O)c(Nc2cccc(Cl)c2)c(O)n1`, the figures for the AC50 in data set [13] and in [10] were 1.14 µM (active) and 64.9 µM (active), respectively. Moreover, the half-maximal effective concentration (EC50) in data set [11] is 1.92 µM (active).

Consider `Cl.OC1(c2ccc(F)cc2)CCNC1` (stereo unspecified), for which the AC50 result in [1] and in data set [14] was “inconclusive” in each case.

Regarding `O=C(Cc1ccccc1)N/N=C/C=C/c1cccc([N+](=O)[O-])c1`, the AC50 entry in data set [1] is “inconclusive”; in data set [14] it was “inconclusive”; in [9], 15.8 µM (inconclusive).

In the case of `Cc1cccc(CNc2ncnc3ccc(-c4ccc5c(c4)OCCO5)cc23)c1`, the AC50 in data set [3] was 8.48 µM (active); in data set [4] it was > 70 µM (inactive); in data set [5], 5.84 µM (active); in data set [6] it was 27.9 µM (active); in data set [7], 5.98 µM (active); in [16], 7.74 µM (active). The CC50 in data set [15] was > 40 µM (active).
